The text below walks through data of patent US20250257095A1, “METHOD FOR VISIBLE LIGHT-MEDIATED CHEMICAL MODIFICATION OF POLYPEPTIDE AND PROTEIN BASED ON CYSTEINE” (SHANGHAI JIAO TONG UNIVERSITY, priority 2022, published 2025).

A short description of the series: Plasma stability test (incubation in plasma at 37° C., LC-MS/MS). The format is in vitro ADME. The conditions noted are these: 2 h later; for metabolised at 2 h, 5 μg/mL: read-out: compound degraded in plasma. The protocol: About 3 μL of a 500 μg/mL compound was taken and added to 297 μL of plasma. Incubation was conducted at 37° C. for 0 h to 3 h. 20 μL of a sample was collected at 1 min, 10 min, 30 min, 60 min, and 120 min. Then 100 μL of acetonitrile was added to precipitate proteins. Then 1 μL of a sample was collected and tested by liquid chromatography-tandem triple quadrupole mass spectrometer (LC-MS/MS) to determine a downward response of the compound in the plasma. The stability of the compound in the plasma could be quantified through plotting.

As for `COC(=O)[C@H](CCC(=O)c1ccccc1)NC(=O)[C@H](CCCCNC(=O)OC(C)(C)C)NC(=O)OCc1ccccc1` [DP-11], the “compound degraded in plasma” value is reported as “not observed”. Consider `CCN1C(=O)CC(SC[C@@H](NC(=O)[C@@H](Cc2ccccc2)NC(=O)OC(C)(C)C)C(=O)O)C1=O` (stereo partly shown) [compound 1], for which the metabolised at 2 h, 5 μg/mL is ~14%. Consider `COC(=O)[C@H](CCC(=O)c1ccccc1)NC(=O)[C@H](Cc1ccccc1)NC(=O)OC(C)(C)C` [DP-04], for which the “compound degraded in plasma” value is “not observed”.

`CCN1C(=O)CC(SC[C@@H](NC(=O)[C@@H](CCCCNC(=O)OC(C)(C)C)NC(=O)OCc2ccccc2)C(=O)O)C1=O` (stereo partly shown) [compound 2]: the metabolised at 2 h, 5 μg/mL was ~1.5%.
